Tested on: relapsed or refractory PTCL
Assay: Efficacy study of compound shown in Formula (I) in peripheral T-cell lymphoma patients
Assay type: in vivo, human
Procedure: ORR: Defined as the proportion of subjects with best efficacy of CR or PR from the start of the first dose to the occurrence of PD or the start of subsequent new anti-tumor treatment, whichever occurs first. • 1.1 Drugs: Compound (WO2017084494A) shown in Formula (1), strength: 50 mg/tablet, 200 mg/tablet. • 1.2 Methods of administration: 350 mg, twice a day, 28 days as a cycle. • 1.3 Inclusion criteria: Relapsed or refractory T lymphocytic lymphoma. A total of 24 patients with relapsed or refractory PTCL were enrolled in the 350 mg group, of whom 16 received chidamide, and all patients were analyzed for efficacy data based on indistinguishable prior treatment and prior chidamide treatment.

For `CCc1c(N(CC)C2CCOCC2)cc2oc(CN3CCCCC3)cc2c1C(=O)NCc1c(C)cc(C)[nH]c1=O` [Formula (I)], the ORR (350 mg group having used chidamide, ES, AITL (n = 8)) was 62.5%, the ORR (350 mg group having used chidamide, ES, ALL (n = 14)) was 64.3% and the ORR (350 mg group having used chidamide, ES, PTCL-NOS (n = 6)) was 66.7%. For the same compound, the ORR (350 mg group having used chidamide, FAS, AITL (n = 10)) was 50.0%, the ORR (350 mg group having used chidamide, FAS, ALL (n = 16)) was 56.3% and the ORR (350 mg group having used chidamide, FAS, PTCL-NOS (n = 6)) was 66.7%. It also gave an ORR (350 mg twice a day, ES, AITL (n = 11)) of 72.7%, an ORR (350 mg twice a day, ES, ALL (n = 18)) of 66.7% and an ORR (350 mg twice a day, ES, PTCL-NOS (n = 7)) of 57.1%. It also gave an ORR (350 mg twice a day, FAS, AITL (n = 15)) of 53.3%, an ORR (350 mg twice a day, FAS, ALL (n = 24)) of 50% and an ORR (350 mg twice a day, FAS, PTCL-NOS (n = 9)) of 44.4%.

From patent US20240325371A1, “USE OF EZH2 INHIBITOR IN PREPARATION OF DRUG FOR TREATING T-CELL LYMPHOMA” (JIANGSU HENGRUI MEDICINE CO., LTD., priority 2021, published 2024)
